Data as given in ChEMBL document CHEMBL1150102, “Chemical constituents of halophilic facultatively anaerobic bacteria, 1” (J Nat Prod, 1995).
Values after ≈ are worked out from the molar mass of the structure shown. Active and inactive are the calls of the source. The calls are words filed in the database; no cut-off is given here.

Tested on: not listed separately
Assay: Inhibition of tyrosin kinase pp60src

SMILES | Activity
O=C(O)Cc1ccccc1 | inactive
O=C(O)Cc1ccc(O)c([N+](=O)[O-])c1 | inactive
N#Cc1c[nH]c2ccccc12 | inactive
O=Cc1c[nH]c2ccccc12 | inactive
CC(C)CC(=O)NCCc1ccc(OC(=O)CC(C)C)c([N+](=O)[O-])c1 | inactive
CC(C)CC(=O)NCCc1ccc(O)c([N+](=O)[O-])c1 | inactive
CC(C)C(=O)NCCc1ccc(OC(=O)C(C)C)c([N+](=O)[O-])c1 | inactive
COC(=O)Cc1ccc(OC)c([N+](=O)[O-])c1 | inactive
O=C(O)c1c[nH]c2ccccc12 | inactive
CC(C)C(=O)NCCc1ccc(O)c([N+](=O)[O-])c1 | inactive

Tested on: P388
Assay: Cytotoxicity against mouse P388 cells
Format: functional, cell-based

SMILES | IC50 [µg/mL]
CC(C)C(=O)NCCc1ccc(O)c([N+](=O)[O-])c1 | 3 (≈ 11.9 µM)
